{"source": "patent US20080058208A1", "about": "“5,6-Cycloalkyl-7-Aminotriazolopyrimidines, their Preparation and their Use for Controlling Harmful Fungi, and Compositions Comprising these Compounds” (BASF Aktiengesellschaft, priority 2004, published 2008)", "key": {"Phytophthora infestans": {"test_system": "Phytophthora infestans", "assay_type": "cell-based", "conditions": "125 ppm; sporangia suspension; 18° C.; absorption at 405 nm on seventh day after inoculation"}, "Pythium species": {"test_system": "Pythium species", "assay": "Activity against Pythium species in the microtiter test", "assay_type": "cell-based", "conditions": "125 ppm; zoospore suspension; 18° C.; absorption at 405 nm on seventh day after inoculation"}}, "data": [{"compound": "Nc1c2c(nc3ncnn13)CCCC2", "note": "[I-2, 5,6,7,8-tetrahydro-[1,2,4]triazolo[5,1-b]quinazolin-9-ylamine]", "values": [{"measurement": "relative growth of the pathogens, % of that of the untreated control", "setting": "Phytophthora infestans", "value": 6, "unit": "%"}, {"measurement": "relative growth of the pathogens, % of that of the untreated control", "setting": "Pythium species", "value": 7, "unit": "%"}]}]}
